Laboratory results taken from US20170223976A1, “MODIFIED MILK POWDER CONTAINING 1,5-ANHYDRO-D-GLUCITOL” (NIHON STARCH CO., LTD., priority 2015, published 2017).

Key:
[1] = tested on: PSG-1 gene; experiment: PSG-1 gene expression in placental trophoblastic cells, real-time RT-PCR; format: cell-based, human; conditions: for expression level of PSG-1 gene relative to non-added section: after 72 hours
Protocol: (§1) The influence upon these two genes (PSG-1 and CSH-1) of 1,5-AG was analyzed by a real-time RT-PCR method using placental trophoblastic cells. As a preliminary study, the expression level of PSG-1 was analyzed at three concentrations (1 μg/mL or less, 40 μg/mL and 160 μg/mL of 1,5-AG) and for three sampling times (3, 24 and 72 hours). A test was conducted by the following method.
(§2) Human placental villous trophoblastic cells (ScienCell Research Laboratories)
The human placental villous trophoblastic cells were initiated in a T-75 flask by using a trophoblast medium (to be simply referred to as “medium” hereinafter) to be cultured in a CO2 incubator (5% CO2, 37° C., moistening). Medium exchange was carried out every 2 days, the cells were collected when 80% confluence was reached, and cells having a passage number of 2 were used in this test. Stated more specifically, after the cells were washed with D-PBS (−), the cells were separated by using 0.25% trypsin-EDTA, and a medium was added to neutralize trypsin. Then, the supernatant was removed by centrifugation (180 g, 5 minutes), a new medium was added to stir the cells, the number of the cells was counted by using a corpuscle calculating board, and a medium was used to achieve a target concentration (4.0×10^3 cells/100 μL).
The sample was added to mediums to achieve 1,5-AG final concentrations of 40 μg/mL and 160 μg/mL. When the final concentration was not more than 1 μg/mL, 1,5-AG was not added. Stated more specifically, a 1,5-AG aqueous solution having a concentration of 40 mg/mL was added to a test medium in a ratio of 1/1000 or 1/250 to achieve a final concentration of 40 μg/mL or 160 μg/mL, and the 1,5-AG solution was sterilized with a filter to be used in the test. […]
(§3) The PCR reaction was carried out under the conditions of 95° C.·30 sec−(95° C.·10 sec−60° C.·30 sec)×45 cycles−95° C.·15 sec−55° C.·15 sec−95° C.·15 sec, and the dissociation curve of the PCR product was obtained after the end of the PCR reaction. The relative expression level was calculated by the ? […]

[2] = tested on: type 2 diabetes model; conditions: in vivo; cited from earlier work
[3] = tested on: PC12 cells; experiment: Fluorescence determination of number of living cells and amount of neurite outgrowth (neurite outgrowth staining kit); format: cell-based
Protocol: A test was carried out at five concentrations (1.6, 8, 40, 200 and 1,000 μg/mL) of 1,5-AG. Stated more specifically, a 1,5-AG aqueous solution having a concentration of 100 mg/mL was diluted with water to prepare 100 times-concentrated solutions having concentrations of 0.16, 0.8, 4, 20 and 100 mg/mL. These 100 times-concentrated solutions were each added to a test medium in a ratio of 1/100 to achieve final concentrations of 1.6, 8, 40, 200 and 1,000 μg/mL and sterilized with a filter to be used in the test. As a negative control, water was added to a medium in a ratio of 1/100 and sterilized with a filter to be used in the test. As a positive control, a test medium containing a 100 ng/mL nerve growth factor (NGF) was used.
A growth medium was used to adjust the cells to a concentration of 2.0×10^3 cells/100 μL/well, and the cells were scattered in a collagen-coated 96-well plate to be cultured in a CO2 incubator (5% CO2, 37° C., moistening) for 24 hours. After culture, the medium was replaced by a sample-containing test medium (100 μL), and the cells were cultured in a CO2 incubator for 96 hours. After the end of culture, an image of the cells in each well was taken with a phase difference microscope and used for the measurement of nuetrite outgrowth rate, and nuclei and cytoplasms were fluorescent dyed by using a neurite outgrowth staining kit to measure the number of living cells and the amount of neurite outgrowth. These procedures were carried out five times each.
After the end of culture, the number of living cells and the amount of neurite outgrowth were determined by using a neurite outgrowth staining kit. Stated more specifically, after the medium was removed, 100 μL of a staining solution (prepared by diluting Cell Viability Indicator and Cell Membrane Stain attached to the kit with calcium magnesium-containing PBS 1,000 times) was added to each well to incubate the cells at 37° C. for 20 minutes. After incubation, the staining solution was removed, 100 μL of a background suppression solution (prepared by diluting the background suppression dye attached to the kit with calcium magnesium-containing PBS 100 times) was added to each well so as to measure fluorescence intensity with a micro plate reader (measurement of the number of living cells: excitation wavelength of 495 nm, fluorescence wavelength of 515 nm, measurement of the amount of neurite outgrowth: excitation wavelength of 555 nm, fluorescent wavelength of 565 nm).

[4] = tested on: CSH-1 gene; experiment: CSH-1 gene expression in placental trophoblastic cells, real-time RT-PCR; format: cell-based, human; conditions: 160 μg/mL 1,5-AG, after 72 hours
Protocol: as §1, §2
The human placental villous trophoblastic cells were initiated in a T-75 flask by using a trophoblast medium (to be simply referred to as “medium” hereinafter) to be cultured in a CO2 incubator (5% CO2, 37° C., moistening). […] Then, the supernatant was removed by centrifugation (180 g, 5 minutes), a new medium was added to stir the cells, the number of the cells was counted by using a corpuscle calculating board, and a medium was used to achieve a target concentration (4.0×10^3 cells/100 μL). […]
as §3

Which “expression level of PSG-1 gene relative to non-added section” value ([1]; 40 μg/mL 1,5-AG) does the source give for `OC[C@H]1OC[C@H](O)[C@@H](O)[C@@H]1O` [1,5-AG, 1,5-anhydro-D-glucitol] here?
Its value is 1.54 times.

And the “expression level of PSG-1 gene relative to non-added section” value ([1]; 160 μg/mL 1,5-AG)?
Its value is 1.62 times.

And the “expression level of PSG-1 gene over treatment time” value ([1]; 1,5-AG added sections, 3, 24 and 72 hours)?
The value was “rose in proportion to the sample treatment time”.

And the anti-diabetic effect [2]?
The anti-diabetic effect was “anti-diabetic effect”.

What about the “amount of neurite outgrowth as compared with the non-added section” value ([3]; 8 μg/mL section) of the same compound?
The value was 113.4%.

What about the “amount of neurite outgrowth as compared with the non-added section” value ([3]; 40 μg/mL section) of the same compound?
Its value is 113.3%.

What about the “number of living cells” value ([3]; all test sections versus negative control, 96 hours) of the same compound?
Its value is “about the same as that of a negative control”.

And the “expression level of CSH-1 gene relative to non-added section” value [4]?
The value was 0.92 time.
